According to US10647675B2 (priority 2015, dated 2020):
Values after ≈ are worked out from the molar mass of the structure shown.

What was measured:
[1] = test system: Trichophyton mentagrophytes SM-110; experiment: Antifungal activity evaluation test: minimum inhibitory concentration (MIC), broth dilution by reference to CLSI M38-A2; assay type: cell-based; settings: SM110, read-out: MIC (T. menta.)
Protocol: (§1) The minimum inhibitory concentration (MIC) for Trichophyton mentagrophytes and Trichophyton rubrum was measured by the following procedure by reference to Clinical and Laboratory standards Institute (CLSI) guidelines M38-A2. Reference document for the measurement method: National Committee for a Clinical Laboratory Standards. Reference method for broth dilution antifungal susceptibility testing of filamentous fungi. Approved standard Second edition M38-A2. Wayne, Pa.: National Committee for a Clinical Laboratory Standards, 2008. • Test compound solution: A test compound was dissolved in dimethyl sulfoxide (DMSO) at a concentration of 2.5 mg/mL to give a stock solution. The stock solution was appropriately diluted with DMSO to prepare a 2-fold dilution series. As control compounds, terbinafine and amorolfine were used. • Test strains: Trichophyton mentagrophytes SM-110 and Trichophyton rubrum KD-1130 were used. • Preparation of fungal culture to be inoculated: The above-mentioned test strain was suspended in 0.05% Tween 80-containing saline, and the fungi of the genus Trichophyton were prepared to a fungal concentration of 1×10^6 cells/mL by using a hemocytometer. Then, using MOPS-buffered RPMI 1640 medium (pH 7.0) as a test medium, a fungal culture of the fungi of the genus Trichophyton was diluted 250-fold (4×10^3 cells/mL) to give a fungal culture for inoculation. • MIC measurement of genus Trichophyton fungi: MOPS-buffered RPMI 1640 medium (pH 7.0) was dispensed by 100 μL to given wells of a 96 well U-bottom microplate. Then, the test compound solution (2 μL) was added, the mixture was sufficiently stirred by a plate mixer. The fungal culture (100 μL) was inoculated and the mixture was cultured at 35° C. for 4 days (final fungal concentration: 2×10^3 cells/mL). After the culture, the minimum drug concentration of a well in which a growth inhibitory action of not less than 80% was visually observed as compared to a growth control was taken as a minimum inhibitory concentration (MIC: μg/mL).
(§2) The abbreviations in the Tables mean the following fungi and compounds. • T. menta.: Trichophyton mentagrophytes • T. rubrum: Trichophyton rubrum • TBF: terbinafine • AMF: amorolfine

[2] = test system: Trichophyton rubrum KD-1130; experiment: as above; assay type: cell-based; settings: KD1130, read-out: MIC (T. rubrum)
Protocol: as §1, §2

MIC [1] | MIC [2] | SMILES
≤ 0.1 µg/mL | ≤ 0.1 µg/mL | Cc1ccncc1-c1cccnc1Oc1ccc(I)cc1 [I-426]
≤ 0.1 µg/mL | ≤ 0.1 µg/mL | COc1cccc(F)c1-c1cccnc1Oc1ccc(C(F)(F)F)nc1 [I-10, 3-(2-fluoro-6-methoxyphenyl)-2-{[6-(trifluoromethyl)pyridin-3-yl]oxy}pyridine]
0.2 to 0.78 µg/mL (≈ 0.568 to 2.21 µM) | ≤ 0.1 µg/mL | Fc1cccc(-c2cccnc2Oc2ccc(C(F)(F)F)nc2)c1F [I-9, 3-(2,3-difluorophenyl)-2-{[6-(trifluoromethyl)pyridin-3-yl]oxy}pyridine]
≤ 0.1 µg/mL | ≤ 0.1 µg/mL | Fc1cc2c(c(-c3cccnc3Oc3ccc(C(F)(F)F)nc3)c1)OCC2 [I-41, 3-(5-fluoro-2,3-dihydrobenzofuran-7-yl)-2-{[6-(trifluoromethyl)pyridin-3-yl]oxy}pyridine]
≤ 0.1 µg/mL | ≤ 0.1 µg/mL | CCOCCc1ccc(Oc2ncccc2-c2cccc3ccnn23)cc1 [I-412, 7-{2-[4-(2-ethoxyethyl)phenoxy]pyridin-3-yl}pyrazolo[1,5-a]pyridine]
≤ 0.1 µg/mL | ≤ 0.1 µg/mL | COc1cc(F)c(F)cc1-c1cccnc1Oc1ccc(C(F)F)nc1 [I-76, 3-(4,5-difluoro-2-methoxyphenyl)-2-{[6-(difluoromethyl)pyridin-3-yl]oxy}pyridine]
0.2 to 0.78 µg/mL (≈ 0.576 to 2.25 µM) | ≤ 0.1 µg/mL | COc1ccccc1-c1nccnc1Oc1ccc(C(F)(F)F)nc1 [I-309, 2-(2-methoxyphenyl)-3-{[6-(trifluoromethyl)pyridin-3-yl]oxy}pyrazine]
0.2 to 0.78 µg/mL (≈ 0.574 to 2.24 µM) | 0.2 to 0.78 µg/mL (≈ 0.574 to 2.24 µM) | COc1ccccc1-c1cccnc1Oc1cnc2c(c1)CCCC2O (centres unmarked) [I-140, 3-{[3-(2-methoxyphenyl)pyridin-2-yl]oxy}-5,6,7,8-tetrahydroquinolin-8-ol]
0.2 to 0.78 µg/mL (≈ 0.576 to 2.25 µM) | 0.2 to 0.78 µg/mL (≈ 0.576 to 2.25 µM) | COc1ccccc1-c1ccnnc1Oc1ccc(C(F)(F)F)nc1 [I-311, 4-(2-methoxyphenyl)-3-{[6-(trifluoromethyl)pyridin-3-yl]oxy}pyridazine]
≤ 0.1 µg/mL | ≤ 0.1 µg/mL | COc1ncccc1-c1cccnc1Oc1ccc(CCc2nc(C)no2)cc1 [I-411]
≤ 0.1 µg/mL | ≤ 0.1 µg/mL | CCc1cc(Oc2ncccc2-c2cnccc2OC)ccc1C(F)F [I-296, 2-[4-(difluoromethyl)-3-ethylphenoxy]-4′-methoxy-3,3′-bipyridine]
≤ 0.1 µg/mL | ≤ 0.1 µg/mL | CC(F)(F)c1ccc(Oc2ncccc2-c2cccc3c(Cl)cnn23)cn1 [I-116, 3-chloro-7-(2-{[6-(1,1-difluoroethyl)pyridin-3-yl]oxy}pyridin-3-yl)pyrazolo[1,5-a]pyridine]
≤ 0.1 µg/mL | ≤ 0.1 µg/mL | CCCSc1ncc(Oc2ncccc2-c2ccc(F)cc2OC)cn1 [I-186, 2-(propylthio)-5-{[3-(4-fluoro-2-methoxyphenyl)pyridin-2-yl]oxy}-pyrimidine]
≤ 0.1 µg/mL | ≤ 0.1 µg/mL | CCc1ccc(Oc2ncccc2-c2cnccc2Cl)cc1 [I-290, 4′-chloro-2-(4-ethylphenoxy)-3,3′-bipyridine]
≤ 0.1 µg/mL | ≤ 0.1 µg/mL | Cc1cc(Oc2ncncc2-c2cccc3c2OCC3)cnc1C(F)F [I-324]
≤ 0.1 µg/mL | ≤ 0.1 µg/mL | Cc1ccncc1-c1cccnc1Oc1ccc(-c2ccccn2)cc1 [I-431]
≤ 0.1 µg/mL | ≤ 0.1 µg/mL | COc1cc(-c2cccnc2Oc2ccc(C(F)F)nc2)ccc1F [I-75, 2-{[6-(difluoromethyl)pyridin-3-yl]oxy}-3-(4-fluoro-3-methoxyphenyl)pyridine]
≤ 0.1 µg/mL | ≤ 0.1 µg/mL | COc1ccncc1-c1nccnc1Oc1ccc2c(c1)CCCC2 [I-317, 2-(4-methoxypyridin-3-yl)-3-[(5,6,7,8-tetrahydronaphthalen-2-yl)oxy]pyrazine]
0.2 to 0.78 µg/mL (≈ 0.531 to 2.07 µM) | 0.2 to 0.78 µg/mL (≈ 0.531 to 2.07 µM) | COc1cc(F)ccc1-c1cccnc1Oc1ccc(C(F)(F)CO)nc1 [I-154, 2,2-difluoro-2-(5-{[3-(4-fluoro-2-methoxyphenyl)pyridin-2-yl]oxy}pyridin-2-yl)-ethanol]
≤ 0.1 µg/mL | ≤ 0.1 µg/mL | COCC(F)(F)c1ccc(Oc2ncccc2-c2cc(OC)ccc2F)cn1 [I-458]

MIC [1] | MIC [2] | SMILES
≤ 0.1 µg/mL | ≤ 0.1 µg/mL | Fc1cncc(-c2cccnc2Oc2ccc(C(F)(F)F)cc2)c1Cl [I-207, 4′-chloro-5′-fluoro-2-[4-(trifluoromethyl)phenoxy]-3,3′-bipyridine]
≤ 0.1 µg/mL | ≤ 0.1 µg/mL | COc1ccc(OC)c(-c2cccnc2Oc2ccc(C(C)(F)F)nc2)n1 [I-96, 2′-{[6-(1,1-difluoroethyl)pyridin-3-yl]oxy}-3,6-dimethoxy-2,3′-bipyridine]
≤ 0.1 µg/mL | ≤ 0.1 µg/mL | CCCN(C)c1ncc(Oc2ncccc2-c2ccccc2OC)cn1 [I-182, 5-{[3-(2-methoxyphenyl)pyridin-2-yl]oxy}-N-methyl-N-propylpyrimidin-2-amine]
≤ 0.1 µg/mL | ≤ 0.1 µg/mL | COc1c(Cl)cncc1-c1cccnc1Oc1ccc(C(C)(F)F)nc1 [I-100, 5′-chloro-2-{[6-(1,1-difluoroethyl)pyridin-3-yl]oxy}-4′-methoxy-3,3′-bipyridine]
≤ 0.1 µg/mL | ≤ 0.1 µg/mL | COc1cccc(-c2cccnc2Oc2ccc(C(F)(F)F)nc2)n1 [I-374, 6-methoxy-2′-{[6-(trifluoromethyl)pyridin-3-yl]oxy}-2,3′-bipyridine]
0.2 to 0.78 µg/mL (≈ 0.506 to 1.97 µM) | ≤ 0.1 µg/mL | FC(F)(F)c1ccc(Oc2ncccc2-c2ccccc2Br)cn1 [I-5, 3-(2-bromophenyl)-2-{[6-(trifluoromethyl)pyridin-3-yl]oxy}pyridine]
≤ 0.1 µg/mL | ≤ 0.1 µg/mL | COc1ncccc1-c1cccnc1Oc1ccc2c(c1)CCCC2 [I-269, 2-methoxy-2′-[(5,6,7,8-tetrahydronaphthalen-2-yl)oxy]-3,3′-bipyridine]
1.56 to 6.25 µg/mL (≈ 5.09 to 20.4 µM) | 1.56 to 6.25 µg/mL (≈ 5.09 to 20.4 µM) | COc1ccncc1-c1cccnc1Oc1ccc(C=O)cc1 [I-246]
≤ 0.1 µg/mL | ≤ 0.1 µg/mL | COc1ccccc1-c1cccnc1Oc1ccc(C(F)(F)Cn2cc(C)cn2)nc1 [I-153, 2-{(6-[1,1-difluoro-2-(4-methyl-1H-pyrazol-1-yl)ethyl]pyridin-3-yl}oxy)-3-(2-methoxyphenyl)pyridine]
≤ 0.1 µg/mL | ≤ 0.1 µg/mL | COc1nc(C)ccc1-c1cccnc1Oc1ccc(C(F)(F)F)nc1 [I-29, 2-methoxy-6-methyl-2′-{[6-(trifluoromethyl)pyridin-3-yl]oxy}-3,3′-bipyridine]
0.2 to 0.78 µg/mL (≈ 0.552 to 2.15 µM) | 0.2 to 0.78 µg/mL (≈ 0.552 to 2.15 µM) | COCC1(c2ccc(Oc3ncccc3-c3cnccc3OC)cc2)CC1 [I-276, 4′-methoxy-2-{4-[1-(methoxymethyl)cyclopropyl]phenoxy}-3,3′-bipyridine]
≤ 0.1 µg/mL | ≤ 0.1 µg/mL | COc1ncc(C)cc1-c1cccnc1Oc1ccc(C(F)(F)F)nc1 [I-30, 2-methoxy-5-methyl-2′-{[6-(trifluoromethyl)pyridin-3-yl]oxy}-3,3′-bipyridine]
0.2 to 0.78 µg/mL (≈ 0.493 to 1.92 µM) | 0.2 to 0.78 µg/mL (≈ 0.493 to 1.92 µM) | COc1cc(F)ccc1-c1cccnc1Oc1cnc(CCc2cnn(C)c2)nc1 [I-198, 5-{[3-(4-fluoro-2-methoxyphenyl)pyridin-2-yl]oxy}-2-[2-(1-methyl-1H-pyrazol-4-yl)ethyl]pyrimidine]
0.2 to 0.78 µg/mL (≈ 0.561 to 2.19 µM) | 0.2 to 0.78 µg/mL (≈ 0.561 to 2.19 µM) | FC(F)(F)c1ccc(Oc2ncccc2-c2ccccc2C2CC2)cn1 [I-59, 3-(2-cyclopropylphenyl)-2-{[6-(trifluoromethyl)pyridin-3-yl]oxy}pryidine]
1.56 to 6.25 µg/mL (≈ 4.11 to 16.5 µM) | 1.56 to 6.25 µg/mL (≈ 4.11 to 16.5 µM) | CC(F)(F)c1ccc(Oc2ncccc2-c2cccnc2-n2ccnc2)cn1 [I-106, 2-{[6-(1,1-difluoroethyl)pyridin-3-yl]oxy}-2′-(1H-imidazol-1-yl)-3,3′-bipyridine]
≤ 0.1 µg/mL | ≤ 0.1 µg/mL | COc1ccccc1-c1cccnc1Oc1ccc(OCCc2ccccc2)nc1 [I-173, 3-(2-methoxyphenyl)-2-[(6-phenethoxypyridin-3-yl)oxy]pyridine]
1.56 to 6.25 µg/mL (≈ 4.37 to 17.5 µM) | 0.2 to 0.78 µg/mL (≈ 0.56 to 2.18 µM) | FC(F)(F)c1ccc(Oc2ncccc2-c2cccc3ncnn23)cn1 [I-45, 5-(2-{[6-(trifluoromethyl)pyridin-3-yl]oxy}pyridin-3-yl)-[1,2,4]triazolo[1,5-a]pryidine]
1.56 to 6.25 µg/mL (≈ 4.33 to 17.3 µM) | 0.2 to 0.78 µg/mL (≈ 0.555 to 2.16 µM) | COc1ccccc1-c1cc(C)cnc1Oc1ccc(C(F)(F)F)nc1 [I-66, 3-(2-methoxyphenyl)-5-methyl-2-{[6-(trifluoromethyl)pyridin-3-yl]oxy}pyridine]
≤ 0.1 µg/mL | ≤ 0.1 µg/mL | FC(F)(F)c1ccc(Oc2ncccc2-c2cccc3cccnc23)cn1 [I-34, 8-(2-{[6-(trifluoromethyl)pyridin-3-yl]oxy}pyridin-3-yl)quinoline]
≤ 0.1 µg/mL | ≤ 0.1 µg/mL | CCc1ccc(Oc2ncccc2-c2cccc3ccnn23)cc1 [I-292, 7-[2-(4-ethylphenoxy)pyridin-3-yl]pyrazolo[1,5-a]pyridine]
